Results from patent publication US20180037923A1, “SELECTIVE DETECTION OF LACTIC ACID AND/OR ACETIC ACID BACTERIA OR OF FUNGI” (priority 2015, published 2018).

Tests used:
Test in all cases: Agar plate count after contact with antifungal
[1] = system: Sacch. Cerevisae DSM 70449; format: cell-based, Saccharomyces cerevisae; conditions: 400 mg/L; count at contact time 0 h 8.10^4 CFU/mL
Text: (§1) The word “bactericide” refers to a treatment having the effect of reducing a bacterial population by at least three decimal logarithms of colony forming units/ml on an agar plate count of a sample after treatment.
(§2) The toxicity results on yeasts and on bacteria are presented in the table below displaying the duration of exposure of the fungal flora to molecule A1 and the associated fluorescence measurement: yeasts lysis after exposure to the antifungal was confirmed by microscopic examination and methylene blue staining.
(§3) The words “contact time” refer to below, the time of exposure of the microorganisms to the fungicidal product, here molecule A1.
(§4) Below: “No CFU” is the abbreviation for “No Colony forming unit on agar plate count”.
(§5) The toxicity results on yeasts and on bacteria are presented in the table below displaying the duration of exposure of the fungal flora to the molecule A2 and are obtained by enumeration on MRS agar media.

[2] = system: Sacch. Cerevisae Saflager S23; format: cell-based, Saccharomyces cerevisae; conditions: 400 mg/L; count at contact time 0 h 9.10^4 CFU/mL
Text: as §1, §2, §3, §4, §5

Sacch. Diastaticus IFBM = format: cell-based, Saccharomyces diastaticus; conditions: 400 mg/L; count at contact time 0 h 2.10^5 CFU/mL
Text: as §1, §2, §3, §4, §5

Measured: Agar plate count contact time 4 h

C[C@@H]1[C@H](O)[C@@H](C)/C=C/C=C/C=C/C=C/C=C/C=C/C=C/[C@H](O[C@@H]2O[C@H](C)[C@@H](O)[C@H](N)[C@@H]2O)C[C@@H]2O[C@](O)(C[C@@H](O)C[C@@H](O)[C@H](O)CC[C@@H](O)C[C@@H](O)CC(=O)O[C@H]1C)C[C@H](O)[C@H]2C(=O)O [Molecule A1, Amphotericin B]
No CFU: all assays above
